Results from publication PMC7094781 (Journal of Molecular Biology, 2007).

Target: SARS 3CL^pro (Severe acute respiratory syndrome coronavirus, UniProt P0C6U8)

## acetyl-leucyl-alanyl-alanyl-ketomethyl(cycloglutamine)-phthalhydrazide [inhibitor 2]
  bonding mode to Cys145, soaking: the episulfide and the deacylating (major) mixed forms
